Laboratory results reported in patent US11065264B2, “Metal-olsalazine coordination polymers for medical applications” (THE REGENTS OF THE UNIVERSITY OF CALIFORNIA, priority 2016, dated 2021).

What was measured:
[1] = Olsalazine release from pressed pellets under simulated gastrointestinal conditions; format: physicochemical
Method: To evaluate the potential utility of Ca(H2olz).xH2O coordination solids in the treatment of ulcerative colitis (x=4, 2, and 0 for 1D, 2D, and 3D materials, respectively), each material was tested for drug release in comparison with Na2(H2olz), which is the salt used in the commercial formulation (available as Dipentum®). Each material was pressed into a pellet and exposed to solutions that mimic the pH of the stomach, small intestine, and colon. The pH and composition of the release medium was changed by addition of buffers in accordance to the expected transit times of a pill through the gastrointestinal tract: the first two hours were held at pH 1.1, the next two hours at pH 6.0, and the final six hours at pH 7.3. The vessels containing the pellet in release media were shaken at 60 rpm at 37° C. to simulate the motion and temperature of the body.
Sample pellets were prepared from pure material without binders or other agents typically used for pill preparation in the pharmaceutical industry. This was done in order to probe the properties of each material without influence from any excipients. Due to this method of preparation, however, pellets were susceptible to disintegration, which can accelerate the observed dissolution rates. […] The variability in pellet integrity likely contributed to the large observed standard deviation.
FIG. 3 is a graph of the release of olsalazine from Na2(H2olz) (circles) and Ca(H2olz).xH2O materials under simulated gastrointestinal conditions (x=4, 2, 0, denoted by squares, triangles, and diamonds, respectively). Error bars represent standard deviation across three independent data sets, where the quantity of olsalazine in solution was measured spectroscopically (λ=360 nm). The release media were changed throughout the study to emulate the typical pH and transit times of a pill passing through the stomach (pH 1.1, 2 h), small intestine (pH 6.0, 2 h), and colon (pH 7.3, 6 h).

[2] = Content of active pharmaceutical ingredient by weight; format: physicochemical
[3] = treatment of ulcerative colitis; cited from earlier work

- amount of drug (olsalazine) released at the four-hour time point ([1]; pellet without excipients, pH 1.1 2 h then pH 6.0 2 h, 37° C., 60 rpm, absorbance 360 nm): over 90%
- pellet disintegration in contact with the release solution ([1]; pellets of pure material without binders): partially disintegrated
- rate of olsalazine release/dissolution, Na2(H2olz) compared with Ca(H2olz) materials ([1]; simulated gastrointestinal environment, pH 6.0 and above): dissolved more rapidly
- percentage of the active pharmaceutical ingredient (olsalazine) by weight [2]: 79%
SMILES: O=C(O)c1cc(/N=N/c2ccc(O)c(C(=O)O)c2)ccc1O [Na2(H2olz), olsalazine disodium]
- patients discontinuing treatment because of diarrhea [3]: over 10%
- patients experiencing diarrhea as a side effect [3]: ≤ 35%
